Key:
Assay in all cases: relative viability (nuclei count vs DMSO), 5 days (fraction); higher = more cells survive
[1] = compound: Cc1ccc2nc(NCCN)c3ncc(C)n3c2c1 + CC(C)C[C@H](NC(=O)[C@H](Cc1ccccc1)NC(=O)c1cnccn1)B(O)O [Bortezomib] (partner 0.002 µM)
Procedure, shortened: (§1)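 Lung cancer cell lines in 1536-well plates were dosed by pin tool the day after seeding, either with one drug alone or with a fixed anchor-drug dose plus five library-drug doses (not always all listed) in √10 steps. After 5 days, cells were fixed and their nuclei stained in one step (final 0.05% Triton X-100, 1% formaldehyde, 1 ug/ml Hoechst), then counted on 4× images. Relative viability is the nuclei count in treated wells divided by that in vehicle wells. Values are medians of duplicate plates.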

[2] = compound: O=C(/C=C/c1ccccc1)NC(NC(=S)Nc1cccc2cccnc12)C(Cl)(Cl)Cl [Salubrinal] + N=C(N)NC(=N)NCCc1ccccc1 [Phenformin] (partner 250 µM)
Procedure, shortened: as §1

[3] = compound: Cc1ccc2nc(NCCN)c3ncc(C)n3c2c1 + CC1(C)CCC(c2ccc(Cl)cc2)=C(CN2CCN(c3ccc(C(=O)NS(=O)(=O)c4ccc(N[C@H](CCN5CCOCC5)CSc5ccccc5)c(S(=O)(=O)C(F)(F)F)c4)cc3)CC2)C1 [Navitoclax] (partner 0.5 µM)
Procedure, shortened: as §1

[4] = compound: Cc1ccc2nc(NCCN)c3ncc(C)n3c2c1 + Nc1nc2[nH]cc(CCc3ccc(C(=O)N[C@@H](CCC(=O)O)C(=O)O)cc3)c2c(=O)[nH]1 [Pemetrexed] (partner 0.2 µM)
Procedure, shortened: as §1

Cell Line	relative viability ([1]; first compound 0.04 µM)	relative viability ([1]; first compound 0.1265 µM)	relative viability ([1]; first compound 0.4 µM)	relative viability ([1]; first compound 1.265 µM)	relative viability ([1]; first compound 4 µM)	relative viability ([2]; first compound 0.08 µM)	relative viability ([2]; first compound 0.253 µM)	relative viability ([2]; first compound 0.8 µM)	relative viability ([2]; first compound 2.53 µM)	relative viability ([2]; first compound 8 µM)	relative viability ([3]; first compound 0.04 µM)	relative viability ([3]; first compound 0.1265 µM)	relative viability ([3]; first compound 0.4 µM)	relative viability ([3]; first compound 1.265 µM)	relative viability ([3]; first compound 4 µM)	relative viability ([4]; first compound 0.04 µM)	relative viability ([4]; first compound 0.1265 µM)	relative viability ([4]; first compound 0.4 µM)	relative viability ([4]; first compound 1.265 µM)	relative viability ([4]; first compound 4 µM)
NCI-H1651	0.966	0.954	1.07	0.972	0.676	0.311	0.237	0.345	0.296	0.267	1.02	1.02	1.19	1.18	0.955	0.578	0.639	0.647	0.591	0.502
NCI-H1666	0.878	0.8	0.762	1.03	0.689	0.535	0.603	0.561	0.547	0.514	0.886	0.922	0.96	0.89	0.776	0.965	0.817	0.84	0.736	0.795
NCI-H1734	1.04	0.965	0.942	0.935	0.999	0.416	0.375	0.412	0.429	0.366	0.818	0.803	0.8	0.808	0.803	0.438	0.395	0.413	0.48	0.496
NCI-H1755	1.02	0.99	0.897	0.956	1.02	0.639	0.676	0.652	0.625	0.552	1.04	0.971	0.997	1.02	0.98	0.446	0.408	0.411	0.437	0.456
NCI-H1792	0.963	0.915	0.912	0.94	0.968	0.258	–	0.368	0.239	0.262	0.642	0.658	0.645	0.619	0.594	1.33	0.774	–	0.801	0.618
NCI-H1915	0.977	–	0.685	0.964	0.915	0.39	0.341	0.389	0.355	0.365	0.793	–	0.781	0.774	0.766	0.511	0.502	0.463	0.519	0.442
NCI-H1975	0.363	0.384	0.428	0.375	0.407	0.465	0.359	0.434	0.427	0.375	1.06	1.12	1.08	0.952	0.863	0.309	0.29	0.3	0.313	0.324
NCI-H1993	1.21	1.07	0.921	1.11	0.875	0.464	0.545	0.506	0.503	0.509	0.799	0.782	0.676	0.752	0.692	0.595	0.623	0.528	0.57	0.613
NCI-H2009	1.06	1.01	0.987	0.97	0.875	0.534	0.492	0.489	0.454	0.411	1.19	1.08	1.17	1.17	1.09	1.02	0.985	0.966	0.951	0.926
NCI-H2023	1.17	1.01	0.938	1.16	0.858	0.471	0.37	0.461	0.368	0.276	1.05	0.999	1.03	1.03	0.954	0.254	0.241	0.235	0.503	0.171
NCI-H2085	1.13	1.02	1.04	1.05	1.03	0.68	0.634	0.682	0.749	0.665	1.27	1.12	1.08	1.06	1.08	0.87	0.934	0.855	0.892	1
NCI-H2087	0.756	0.955	0.66	0.824	0.864	0.472	0.361	0.527	0.471	0.476	0.985	1.09	1.01	0.856	1.06	0.725	0.637	0.599	0.711	0.575
NCI-H2126	1.15	1.1	1.18	1.16	1.13	0.512	0.537	0.562	0.563	0.519	0.881	0.886	0.815	0.746	0.792	0.851	0.699	0.659	0.708	0.59
NCI-H2228	1.11	0.992	1.16	1.13	0.907	0.319	0.265	0.441	0.315	0.247	0.794	0.843	0.702	0.732	0.674	0.316	0.292	0.357	0.361	0.419
NCI-H2347	1.09	0.919	0.932	1.14	1.07	0.321	0.35	0.399	0.363	0.43	0.871	0.723	0.715	0.787	0.677	0.447	0.479	0.454	0.412	0.424
NCI-H2405	1.03	1.03	0.964	0.969	0.918	0.42	0.387	0.441	0.329	0.408	0.849	0.905	0.936	0.718	0.725	1.17	1.01	1	0.905	0.798
